What was measured:
Type in all cases: functional
Rattus norvegicus [1] = assay: Percent reduction in swelling of the left hind paw in rat when 40 mg/kg of dose was injected perorally which was determined in adjuvant arthritis test; conditions: route oral
Rattus norvegicus [2] = assay: Minimum ulcerogenic dose was evaluated 24 hours after peroral administration; value may range from 12.5-25
Rattus norvegicus [3] = assay: Percent reduction in swelling of the left hind paw in rat when 10 mg/kg of dose was injected perorally which was determined in adjuvant arthritis test; conditions: route oral
Rattus norvegicus [4] = species on record: Rattus norvegicus; assay: Activity relative to fenclofenac determined in adjuvant arthritis test
Rattus norvegicus [5] = assay: Minimum ulcerogenic dose was evaluated 24 hours after peroral administration; value may range from 100-200
Rattus norvegicus [6] = assay: Percent reduction in swelling of the left hind paw in rat when 20 mg/kg of dose was injected perorally which was determined in adjuvant arthritis test; conditions: route oral
Rattus norvegicus [7] = assay: Minimum ulcerogenic dose was evaluated 24 hours after peroral administration; value may range from 60-120
Rattus norvegicus [8] = assay: Percent reduction in swelling of the left hind paw in rat determined in adjuvant arthritis test, 25 mg/kg dose was perorally; conditions: route oral
Rattus norvegicus [9] = assay: Percent reduction in swelling of the left hind paw in rat when 2 mg/kg of dose was injected perorally which was determined in adjuvant arthritis test; conditions: route oral
Rattus norvegicus [10] = assay: Minimum ulcerogenic dose was evaluated 24 hours after peroral administration; value may range from 50-80
Rattus norvegicus [11] = assay: Percent reduction in swelling of the left hind paw in rat when 35 mg/kg of dose was injected perorally which was determined in adjuvant arthritis test; conditions: route oral

SMILES: Cc1ccc2c(c1)CCNc1cc(C)cc(Cl)c1O2
- Reduction (Rattus norvegicus [1]): 19%

SMILES: Nc1cc(Cl)cc(Cl)c1Oc1ccccc1CC(=O)O
- MUD (Rattus norvegicus [2]): 12.5 mg/kg
- Reduction (Rattus norvegicus [3]): 41%
- Relative potency (Rattus norvegicus [4]): 6.8

SMILES: Cc1cccc(N(C)C)c1Oc1ccccc1CC(=O)O
- MUD (Rattus norvegicus [5]): 100 mg/kg
- Reduction (Rattus norvegicus [6]): 38%
- Relative potency (Rattus norvegicus [4]): 2.1

SMILES: Cc1c(N)c(Oc2ccccc2CC(=O)O)c(Cl)c(C)c1Cl
- MUD (Rattus norvegicus [7]): 60 mg/kg
- Reduction (Rattus norvegicus [8]): 4%

SMILES: CNc1cc(Cl)cc(Cl)c1Oc1ccccc1CC(=O)O
- Reduction (Rattus norvegicus [9]): 22%
- Relative potency (Rattus norvegicus [4]): 13

SMILES: COC(=O)Cc1ccccc1Oc1c(N)cc(Cl)cc1Cl
- Reduction (Rattus norvegicus [8]): 38%
- MUD (Rattus norvegicus [10]): 50 mg/kg
- Relative potency (Rattus norvegicus [4]): 7.5

SMILES: Nc1ccccc1Oc1ccccc1CC(=O)O
- Reduction (Rattus norvegicus [11]): 2%

Reference: ChEMBL document CHEMBL1122891, “Substituted 5H-dibenz[b,g]-1,4-oxazocines and related amino acids with antiinflammatory activity” (1985)
